The source of these data is ChEMBL document CHEMBL3832048, “DailyMed|setid=020d34eb-9560-4218-9d87-dfdeff705c3a | BICALUTAMIDE - bicalutamide tablet, film coated|Physicians Total Care, Inc”.

As a reminder, the Cmax is the peak of the concentration-time curve. By CL/F is commonly meant clearance divided by bioavailability, as obtained after extravascular dosing. One may read the Tmax as the time at which the peak concentration occurs. Usually half-life stands for how long it takes for the measured level to halve.

One series has as its system Homo sapiens. Description: (§1) Pharmacokinetic parameters for Bicalutamide following single oral administration of Bicalutamide tablets to 30 healthy male subjects and 40 patients with prostrate cancer. In kind it is ADME, organism-based. On the set-up: route oral. The following applies: in vivo, po, dosed compound id 25, dosed compound name BICALUTAMIDE, gender male, regimen Single dose, tissue Plasma.

A short description of series [1]: as §1. In kind it is ADME, organism-based. Set-up: route oral. The following applies: human, in vivo, dosed compound id 25, dosed compound name BICALUTAMIDE, gender male, regimen Single dose, tissue Plasma.

Each structure is given as a SMILES string.

In the series with Homo sapiens, `CC(O)(CS(=O)(=O)c1ccc(F)cc1)C(=O)Nc1ccc(C#N)c(C(F)(F)F)c1` (stereo not given) [BICALUTAMIDE] came in with a Css of 8939 ng/mL. This molecule gave a peak concentration (Cmax) in series [1] (po) of 768 ng/mL. For the same molecule, in series [1] (route oral), the CL/F was 5.33 mL/min, the Tmax was 31.3 h and the half-life was 139 h.
